Laboratory results published in patent US8906896B2, “Platinum acridine anti-cancer compounds and methods thereof” (priority 2008, dated 2014).

Columns and labels:
NCI-H460 NSCLC cell line [1] = conditions: typical values; cited from earlier work
NCI-H460 NSCLC cell line [2] = assay: Cytotoxicity (cell proliferation) assay, NCI-H460; assay type: cell-based
Experimental: Cytotoxicity Assay. Cytotoxicity studies were carried out according to a standard protocol (Guddneppanavar et al. 2006) using the Celltiter 96 Aqueous Non-Radioactive Cell Proliferation Assay kit (Promega, Madison, Wis.). […] IC50 values were calculated from non-linear curve fits using a sigmoidal dose-response equation in GraphPad Prism (GraphPad Software, La Jolla, Calif.).

[3] = tested on: H460 NSCLC tumors xenografted into nude mice; assay: H460 xenograft study in nude mice; assay type: in vivo
Experimental: (§1) Xenograft Study. H460 xenografts were established in nude athymic female mice via bilateral subcutaneous injections. Treatment began when the average tumor volume was approximately 100 mm^3. The tumor-bearing mice were randomized depending on tumor volume into three groups of five test animals each: one control group receiving vehicle only, one group treated at 0.1 mg/kg 5d/w×2 (A), and one group treated at 0.5 mg/kg q4d×3 (B). Animal weights and tumor volumes were measured and recorded for 17 days after the first dose was administered. Tumor volumes were determined using the formula:V (mm^3)=d^2×D/2, where d and D are the shortest and longest dimension of the tumor, respectively, and are reported as the sum of both tumors for each test animal. At the end of the study, all animals were euthanized and disposed of according to Standard Operating Procedures (SOPs). Statistical analysis of the growth curves was done using a non-linear polynomial random-coefficient model in SAS Proc Mixed (SAS Institute Inc., Cary, N.C.).
(§2) The antitumor activity of compound 14b was evaluated against H460 bilateral tumors implanted into athymic nude mice. […] Complex 14b was administered intraperitonealy (i.p.) according to the following dosing schedules: (A) 0.1 mg/kg, five days per week for two consecutive weeks (5d/w×2), and (B) 0.5 mg/kg, three doses given at 4-day intervals (q4d×3). The tumor volumes recorded in both treatment groups and in untreated control animals are plotted vs. days of treatment in FIG. 1. At the end of the study, the tumors measured 1834±160, 1798±309, and 1102±319 mm^3 (means±S.E.M.) for the control animals and animals treated according to schedules A and B, respectively.
(§3) Growth curves are shown for untreated control animals (open squares), and mice treated according to schedule A (filled triangles) and schedule B (filled circles). Measurement of tumor volumes began on day 0, and treatment began on day 4. Each data point represents the mean of 5 tumor volumes±S.E.M.

[4] = H460 xenograft study in nude mice; assay type: in vivo; conditions: female, athymic nude, mouse, in vivo, ip, q4d×3, mice; dose B stated to be close to the MTD; read-out: maximum tolerated dose (MTD)
Experimental: as §1, §2, §3

Row | Structure (SMILES) | IC50 in H460 cells (typical) (NCI-H460 NSCLC cell line [1]) | potency in H460 cells relative to the compounds of the invention (fold less potent) (NCI-H460 NSCLC cell line [2]) | tolerated dose relative to cisplatin ([3]; administered i.p.) | effect on tumor growth ([3]; schedule A: 0.1 mg/kg i.p. 5d/w×2) | effect on tumor growth rate compared to control group ([3]; schedule B: 0.5 mg/kg i.p. q4d×3, P<0.01) | MTD at 17 days [4] [mg/kg]
1 | N.N.[Cl][Pt][Cl] [Cisplatin, cis-diamminedichloroplatinum] | micromolar range | at least 20 fold | – | – | – | –
2 | CC/C(=[N]\[Pt]([NH2])([NH2])[Cl])N(C)CCNc1c2ccccc2nc2ccccc12 [Compound 14b] | – | – | an order of magnitude lower than those commonly applied for cisplatin | no effect on tumor growth | slowed the tumor growth rate significantly | ~0.5
